Source: patent publication US10513521B2, “Compositions and methods for inhibiting BMP” (The Brigham and Women's Hospital, Inc., priority 2014, dated 2019)

Key:
ALK3 = ALK3 (Homo sapiens, UniProt P36894); assay: TR-FRET enzymatic ALK kinase assay, ALK3
Protocol: (§1) Briefly, the ALKs enzymatic assay was initiated by dispense 2.5 μl enzyme in 1× kinase reaction buffer. The assay plate was then added with compounds followed by incubation at room temperature for 10 minutes. Then 2.5 μl/well substrate was added.

ALK5 = molecular target: T1, ALK5 (Homo sapiens, UniProt P36897); assay: TR-FRET enzymatic ALK kinase assay, ALK5
T1 sequence (P36897 34-503): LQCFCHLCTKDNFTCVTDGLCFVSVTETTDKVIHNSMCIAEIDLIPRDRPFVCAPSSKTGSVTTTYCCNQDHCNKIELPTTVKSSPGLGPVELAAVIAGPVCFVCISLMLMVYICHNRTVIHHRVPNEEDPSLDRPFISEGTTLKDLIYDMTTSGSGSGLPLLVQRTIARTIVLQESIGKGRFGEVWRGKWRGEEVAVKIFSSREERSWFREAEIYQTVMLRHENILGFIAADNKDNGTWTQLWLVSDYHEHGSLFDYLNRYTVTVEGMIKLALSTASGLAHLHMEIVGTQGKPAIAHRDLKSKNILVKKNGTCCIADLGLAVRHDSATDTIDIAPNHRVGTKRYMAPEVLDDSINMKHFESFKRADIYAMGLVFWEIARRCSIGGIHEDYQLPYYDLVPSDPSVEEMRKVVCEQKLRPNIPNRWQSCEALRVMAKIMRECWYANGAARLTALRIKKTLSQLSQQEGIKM
Protocol: Six ALK kinase enzyme assays were developed for determination of compound activities on ALK1, ALK2, ALK3, ALK4, ALK5 and ALK6.
as §1

ALK6 = ALK6 (Homo sapiens, UniProt O00238); assay: TR-FRET enzymatic ALK kinase assay, ALK6
Protocol: as §1

ALK4 = molecular target: T2, ALK4 (Homo sapiens, UniProt P36896); assay: TR-FRET enzymatic ALK kinase assay, ALK4
T2 sequence (P36896 24-505): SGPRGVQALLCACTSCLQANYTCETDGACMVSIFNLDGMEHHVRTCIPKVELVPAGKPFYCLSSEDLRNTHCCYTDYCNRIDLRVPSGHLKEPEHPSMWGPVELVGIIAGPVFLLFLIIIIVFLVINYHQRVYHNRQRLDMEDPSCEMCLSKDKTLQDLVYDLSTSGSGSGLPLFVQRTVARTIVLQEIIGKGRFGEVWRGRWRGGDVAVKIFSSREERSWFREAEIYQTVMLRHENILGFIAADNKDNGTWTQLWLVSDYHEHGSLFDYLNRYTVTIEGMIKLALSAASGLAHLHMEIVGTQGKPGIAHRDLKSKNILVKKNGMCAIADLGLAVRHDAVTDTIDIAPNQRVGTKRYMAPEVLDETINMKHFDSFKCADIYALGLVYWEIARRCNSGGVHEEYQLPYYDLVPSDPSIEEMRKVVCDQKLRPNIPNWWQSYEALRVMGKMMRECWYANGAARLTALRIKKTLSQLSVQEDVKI
Protocol: as §1

ALK1 = ALK1 (Homo sapiens, UniProt P37023); assay: TR-FRET enzymatic ALK kinase assay, ALK1
Protocol: as §1

ALK2 = molecular target: T3, ALK2 (Homo sapiens, UniProt Q04771); assay: TR-FRET enzymatic ALK kinase assay, ALK2
T3 sequence (Q04771 21-509): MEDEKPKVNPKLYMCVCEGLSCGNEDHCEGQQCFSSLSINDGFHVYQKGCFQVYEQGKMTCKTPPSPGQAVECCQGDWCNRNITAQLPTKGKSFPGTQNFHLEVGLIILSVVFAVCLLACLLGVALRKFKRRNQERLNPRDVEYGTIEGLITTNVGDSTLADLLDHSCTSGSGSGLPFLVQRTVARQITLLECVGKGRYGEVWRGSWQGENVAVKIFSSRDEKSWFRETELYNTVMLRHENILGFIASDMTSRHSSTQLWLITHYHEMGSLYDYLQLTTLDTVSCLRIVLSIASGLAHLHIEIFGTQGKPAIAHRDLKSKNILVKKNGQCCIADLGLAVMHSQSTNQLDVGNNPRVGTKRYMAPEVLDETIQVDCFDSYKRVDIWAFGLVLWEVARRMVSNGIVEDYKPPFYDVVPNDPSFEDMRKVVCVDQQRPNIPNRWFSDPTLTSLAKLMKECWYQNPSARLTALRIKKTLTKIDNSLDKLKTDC
Protocol: as §1

Chain of ALK1 (P37023 22-503): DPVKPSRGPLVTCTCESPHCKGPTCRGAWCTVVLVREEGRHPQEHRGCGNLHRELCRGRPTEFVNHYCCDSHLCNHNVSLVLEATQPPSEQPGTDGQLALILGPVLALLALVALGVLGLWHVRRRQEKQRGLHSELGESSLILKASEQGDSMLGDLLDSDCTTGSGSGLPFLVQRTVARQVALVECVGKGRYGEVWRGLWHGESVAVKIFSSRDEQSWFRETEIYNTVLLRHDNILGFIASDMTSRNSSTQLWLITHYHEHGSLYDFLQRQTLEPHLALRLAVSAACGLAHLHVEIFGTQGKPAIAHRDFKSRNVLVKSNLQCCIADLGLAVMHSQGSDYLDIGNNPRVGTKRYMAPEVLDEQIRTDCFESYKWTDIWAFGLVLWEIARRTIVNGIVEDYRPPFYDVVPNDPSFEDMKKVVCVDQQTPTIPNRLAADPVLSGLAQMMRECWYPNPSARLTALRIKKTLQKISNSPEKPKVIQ
Chain of ALK3 (P36894 24-532): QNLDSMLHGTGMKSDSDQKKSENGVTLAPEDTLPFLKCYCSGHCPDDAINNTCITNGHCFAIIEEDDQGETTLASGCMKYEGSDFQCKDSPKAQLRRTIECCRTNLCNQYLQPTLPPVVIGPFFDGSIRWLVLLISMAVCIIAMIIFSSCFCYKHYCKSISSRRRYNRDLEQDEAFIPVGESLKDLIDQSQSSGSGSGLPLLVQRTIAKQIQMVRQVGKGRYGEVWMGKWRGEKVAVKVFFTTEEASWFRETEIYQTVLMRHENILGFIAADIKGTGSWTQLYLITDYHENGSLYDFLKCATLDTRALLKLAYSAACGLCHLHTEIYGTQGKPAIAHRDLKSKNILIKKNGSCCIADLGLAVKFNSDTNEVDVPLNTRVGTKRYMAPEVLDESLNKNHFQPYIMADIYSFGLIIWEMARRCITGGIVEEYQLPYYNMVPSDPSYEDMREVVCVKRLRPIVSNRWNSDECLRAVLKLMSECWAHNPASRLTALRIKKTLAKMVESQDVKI
Chain of ALK6 (O00238 14-502): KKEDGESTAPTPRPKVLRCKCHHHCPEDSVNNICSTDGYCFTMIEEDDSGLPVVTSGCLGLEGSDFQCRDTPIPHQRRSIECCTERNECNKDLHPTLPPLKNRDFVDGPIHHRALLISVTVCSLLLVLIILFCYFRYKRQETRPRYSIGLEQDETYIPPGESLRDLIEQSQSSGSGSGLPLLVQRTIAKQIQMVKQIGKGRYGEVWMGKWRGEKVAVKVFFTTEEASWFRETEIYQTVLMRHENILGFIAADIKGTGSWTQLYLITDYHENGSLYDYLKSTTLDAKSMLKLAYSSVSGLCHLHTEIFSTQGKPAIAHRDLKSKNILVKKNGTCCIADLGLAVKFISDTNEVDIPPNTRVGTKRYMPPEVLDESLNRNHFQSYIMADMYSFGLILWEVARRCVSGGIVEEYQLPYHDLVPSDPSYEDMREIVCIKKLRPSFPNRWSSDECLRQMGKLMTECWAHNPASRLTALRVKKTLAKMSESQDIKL

IC50 (ALK3) [µM] | IC50 (ALK5) [µM] | IC50 (ALK6) [µM] | IC50 (ALK4) [µM] | IC50 (ALK1) [µM] | IC50 (ALK2) [µM] | Compound
> 10 | > 10 | > 10 | > 10 | 0.17 | 0.016 | NS(=O)(=O)c1ccc(-c2cnn3cc(-c4ccc(OC5(CN6CCCC6)CC5)cc4)cnc23)c2ccccc12 [Compound 207, 4-(6-(4-(1-(pyrrolidin-1-ylmethyl)cyclopropoxy)phenyl)pyrazolo[1,5-a]pyrimidin-3-yl)naphthalene-1-sulfonamide]
0.224 | 13.5 | 0.622 | 4.03 | 0.109 | 0.019 | CC(=O)c1ccc(-c2cnn3cc(-c4ccc(N5[C@H](C)CNC[C@@H]5C)cc4)cnc23)c2ccccc12 [Compound 27, 1-(4-(6-(4-((2R,6S)-2,6-dimethylpiperazin-1-yl)phenyl)pyrazolo[1,5-a]pyrimidin-3-yl)naphthalen-1-yl)ethanone]
2.3 | > 10 | 5.1 | > 10 | 0.76 | 0.15 | CS(=O)(=O)c1cccc(-c2cnn3cc(-c4ccc(CCN5CCOCC5)cc4)cnc23)c1 [Compound 131, 4-(4-(3-(3-(methylsulfonyl)phenyl)pyrazolo[1,5-a]pyrimidin-6-yl)phenethyl)morpholine]
3.8 | > 10 | > 10 | > 10 | 1.3 | 0.062 | NC(c1cccc(-c2cnn3cc(-c4ccc(OC5(CN6CCC(O)CC6)CC5)cc4)cnc23)c1)C(F)(F)F (stereo not drawn) [Compound 180, 1-((1-(4-(3-(3-(1-amino-2,2,2-trifluoroethyl)phenyl)pyrazolo[1,5-a]pyrimidin-6-yl)phenoxy)cyclopropyl)methyl)piperidin-4-ol]
0.271 | 59.6 | 1.08 | 6.6 | 0.051 | 0.017 | C[C@@H]1CNC[C@H](C)N1c1ccc(-c2cnc3c(-c4cccc5ccccc45)cnn3c2)cc1 [Compound 31, 6-(4-((2R,6S)-2,6-dimethylpiperazin-1-yl)phenyl)-3-(naphthalen-1-yl)pyrazolo[1,5-a]pyrimidine]
7.6 | > 10 | > 10 | > 10 | 0.62 | 0.14 | CS(=O)(=O)c1cccc(-c2cnn3cc(-c4ccc(CCN5CCC(O)CC5)cc4)cnc23)c1 [Compound 140, 1-(4-(3-(3-(methylsulfonyl)phenyl)pyrazolo[1,5-a]pyrimidin-6-yl)phenethyl)piperidin-4-ol]
> 10 | > 10 | > 10 | > 10 | 0.43 | 0.033 | CC(N)c1ccc(-c2cnc3c(-c4cccc([S+](C)(=O)[O-])c4)cnn3c2)cc1 (stereo not drawn) [Compound 187, 1-(4-(3-(3-(methylsulfonyl)phenyl)pyrazolo[1,5-a]pyrimidin-6-yl)phenyl)ethanamine]
4.1 | > 10 | > 10 | > 10 | 0.71 | 0.14 | CC(O)c1cccc(-c2cnn3cc(-c4ccc(CCN5CCCC(O)C5)cc4)cnc23)c1 (stereo not drawn) [Compound 150, 1-(4-(3-(3-(1-hydroxyethyl)phenyl)pyrazolo[1,5-a]pyrimidin-6-yl)phenethyl)piperidin-3-ol]
0.62 | > 10 | 9.8 | > 10 | 0.61 | 0.025 | C[C@H](O)c1cccc(-c2cnn3cc(-c4ccc(OC5(CN6CCCCC6)CC5)cc4)cnc23)c1 [Compound 199, (S)-1-(3-(6-(4-(1-(piperidin-1-ylmethyl)cyclopropoxy)phenyl)pyrazolo[1,5-a]pyrimidin-3-yl)phenyl)ethanol]
> 10 | > 10 | > 10 | > 10 | 4.6 | 1.2 | NS(=O)(=O)c1ccc(-c2cnn3cc(-c4ccc(OC(F)(F)CN5CCCCC5)cc4)cnc23)c2ccccc12 [Compound 206, 4-(6-(4-(1,1-difluoro-2-(piperidin-1-yl)ethoxy)phenyl)pyrazolo[1,5-a]pyrimidin-3-yl)naphthalene-1-sulfonamide]
0.75 | > 10 | 3.6 | > 10 | 0.38 | 0.031 | C[S+](=O)([O-])c1cccc(-c2cnn3cc(-c4ccc(OC5(CN6CCOCC6)CC5)cc4)cnc23)c1 [Compound 179, 4-((1-(4-(3-(3-(methylsulfonyl)phenyl)pyrazolo[1,5-a]pyrimidin-6-yl)phenoxy)cyclopropyl)methyl)morpholine]
0.89 | > 10 | > 10 | > 10 | 0.77 | 0.045 | CC(O)c1cccc(-c2cnn3cc(-c4ccc(OC5(CN6CCOCC6)CC5)cc4)cnc23)c1 (stereo not drawn) [Compound 177, 1-(3-(6-(4-(1-(morpholinomethyl)cyclopropoxy)phenyl)pyrazolo[1,5-a]pyrimidin-3-yl)phenyl)ethanol]
1.7 | > 10 | > 10 | > 10 | 0.61 | 0.085 | CC(O)c1cccc(-c2cnn3cc(-c4ccc(OC5(CN6CCNCC6)CC5)cc4)cnc23)c1 (stereo not drawn) [Compound 168, 1-(3-(6-(4-(1-(piperazin-1-ylmethyl)cyclopropoxy)phenyl)pyrazolo[1,5-a]pyrimidin-3-yl)phenyl)ethanol]
6.8 | > 10 | > 10 | > 10 | 4.5 | 0.18 | C[C@@H](O)c1cccc(-c2cnn3cc(-c4ccc(OCCN5CCCCC5)cc4)cnc23)c1 [Compound 149, (R)-1-(3-(6-(4-(2-(piperidin-1-yl)ethoxy)phenyl)pyrazolo[1,5-a]pyrimidin-3-yl)phenyl)ethanol]
1.2 | > 10 | > 10 | > 10 | 0.71 | 0.03 | C[C@H](O)c1cccc(-c2cnn3cc(-c4ccc(OC5(CN6CCCC6)CC5)cc4)cnc23)c1 [Compound 198, (S)-1-(3-(6-(4-(1-(pyrrolidin-1-ylmethyl)cyclopropoxy)phenyl)pyrazolo[1,5-a]pyrimidin-3-yl)phenyl)ethanol]
9.4 | > 10 | > 10 | > 10 | 1.6 | 0.15 | NC(c1cccc(-c2cnn3cc(-c4ccc(OCCN5CCCC5)cc4)cnc23)c1)C(F)(F)F (stereo not drawn) [Compound 161]

Compound | IC50 (ALK3) [µM] | IC50 (ALK5) [µM] | IC50 (ALK6) [µM] | IC50 (ALK4) [µM] | IC50 (ALK1) [µM] | IC50 (ALK2) [µM]
C[C@H](O)c1cccc(-c2cnn3cc(-c4ccc(OC5(CN6C7CCC6CC7)CC5)cc4)cnc23)c1 [Compound 196, (S)-1-(3-(6-(4-(1-(7-azabicyclo[2.2.1]heptan-7-ylmethyl)cyclopropoxy)phenyl)pyrazolo[1,5-a]pyrimidin-3-yl)phenyl)ethanol] | 2.5 | > 10 | 8.9 | > 10 | 0.31 | 0.024
C[S+](=O)([O-])c1cccc(-c2cnn3cc(-c4ccc(OC5(CN6C7CCC6CC7)CC5)cc4)cnc23)c1 [Compound 183, 6-(4-(1-(7-azabicyclo[2.2.1]heptan-7-ylmethyl)cyclopropoxy)phenyl)-3-(3-(methylsulfonyl)phenyl)pyrazolo[1,5-a]pyrimidine] | 1.9 | > 10 | > 10 | > 10 | 0.26 | 0.02
